Values joined by “and” are separate entries in the source; they are usually repeats but may differ in a detail not shown here. Equal values may be shown once.
How the values were obtained:
[1] = system: C1r (C1ra) mRNA; test: siRNA silencing in CHO-K1 derived cells, mRNA expression by real-time RT-PCR; type: cell-based, Chinese hamster; conditions: for residual protease gene-expression: siRNA negative control cells = 100%
Procedure: (§1) First, the proteolytic cleavage site(s) of different recombinant proteins that are prone to clipping were analyzed using different techniques including CE-SDS analysis, mass spectrometry and in silico analysis (data not shown). […] The siRNAs were designed against the following target mRNAs expressed in CHO cells: 1. Matriptase (MT-SP1; also referred to herein as St14), 2. C1r (complement component activated C1r; also referred to as Ctra), 3. C1s (complement component C1sB; also referred to as Gm5077), 4. Plat (t-plasminogen activator) and 5. Prss35 (protease, serine, 35). These target genes encode trypsin-like proteases that are either secreted or transmembrane proteins and thus could be involved in clipping of recombinantly expressed proteins that are secreted into the cell culture medium. It was confirmed in advance that these proteins are expressed by the CHO cells. Table 2 provides an overview over the respective target genes:
(§2) RNAi transfection of CHO-K1 derived cells was performed using Lipofectamine® RNAiMAX Reagent (Life Technology, cat. 13778), following the ‘Reverse Transfection Protocol’ of the manual MAN0001182, scaled up for 6-well plates. For each mRNA target, the two most efficient concentrations of RNAi duplex molecules were used among 100, 125 and 150 pmol: 125 and 150 pmol for MT-SP1 (St14), 125 and 150 pmol for C1r (C1ra), 100 and 125 pmol for Cis (Gm5077), 125 and 150 pmol for Plat and 100 and 125 pmol for Prss35. RNAi duplex molecules of the two selected concentrations were diluted in 1 ml Opti-MEM® (Gibco, cat. 31985-062). As RNAi negative control (siRNA negative control), the Silencer@ Negative Control No. 1 siRNA (AM4611) was used (at 125 pmol). 5 μl Lipofectamine® RNAiMAX Reagent was added in each well. 2 ml of a cell suspension with a concentration of 0.5×10^6 cells/ml were added and plates were incubated at 37° C. and 10% CO2. Three days after transfection, cell density was measured, total RNA of 3×10^6 viable cells was extracted using RNeasy Plus Mini Kit (Qiagen, cat. 74134) and conditioned medium was collected from each well. To control the silencing effect on the target genes, mRNA expression was determined by real-time RT-PCR.

[2] = system: C1s (Gm5077) mRNA; test: as above; type: cell-based, Chinese hamster; conditions: for residual protease gene-expression: siRNA negative control cells = 100%
Procedure: as §1, §2

[3] = system: Matriptase (MT-SP1, St14) mRNA; test: as above; type: cell-based, Chinese hamster; conditions: for residual protease gene-expression: siRNA negative control cells = 100%, three days after transfection
Procedure: as §1, §2

[4] = system: Plat mRNA; test: as above; type: cell-based, Chinese hamster; conditions: for residual protease gene-expression: siRNA negative control cells = 100%
Procedure: as §1, §2

[5] = system: Prss35 mRNA; test: as above; type: cell-based, Chinese hamster; conditions: for residual protease gene-expression: siRNA negative control cells = 100%
Procedure: as §1, §2

[6] = target: T1, matriptase (Homo sapiens, UniProt Q9Y5Y6); conditions: Forbs et al. 2005; Desilets et al. 2006; cited from earlier work
T1 sequence (Q9Y5Y6 1-855): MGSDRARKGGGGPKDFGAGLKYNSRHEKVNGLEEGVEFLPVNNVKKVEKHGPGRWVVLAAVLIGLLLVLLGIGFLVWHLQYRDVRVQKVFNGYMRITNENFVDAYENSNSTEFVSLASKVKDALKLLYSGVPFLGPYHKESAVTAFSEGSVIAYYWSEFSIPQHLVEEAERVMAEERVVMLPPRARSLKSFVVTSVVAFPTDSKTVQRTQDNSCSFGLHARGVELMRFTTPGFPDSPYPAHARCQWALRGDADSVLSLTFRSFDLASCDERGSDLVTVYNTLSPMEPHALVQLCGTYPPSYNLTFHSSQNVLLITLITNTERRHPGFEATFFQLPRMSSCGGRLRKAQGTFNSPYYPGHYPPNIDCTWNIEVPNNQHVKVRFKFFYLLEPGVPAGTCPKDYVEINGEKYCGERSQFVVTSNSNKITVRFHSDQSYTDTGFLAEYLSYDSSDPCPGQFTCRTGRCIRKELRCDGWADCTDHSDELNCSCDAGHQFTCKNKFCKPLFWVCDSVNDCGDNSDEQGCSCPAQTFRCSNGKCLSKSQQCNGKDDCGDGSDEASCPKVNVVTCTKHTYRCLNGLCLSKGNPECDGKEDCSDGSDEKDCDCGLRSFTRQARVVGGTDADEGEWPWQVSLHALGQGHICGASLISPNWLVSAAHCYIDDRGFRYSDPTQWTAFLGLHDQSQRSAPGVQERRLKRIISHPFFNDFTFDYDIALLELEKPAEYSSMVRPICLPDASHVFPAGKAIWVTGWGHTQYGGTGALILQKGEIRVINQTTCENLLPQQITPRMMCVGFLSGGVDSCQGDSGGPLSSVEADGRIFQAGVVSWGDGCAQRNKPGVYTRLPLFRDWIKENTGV

Q: Which residual protease gene-expression ([1]; 125 pmol siRNA) does the source give for “C1r (C1ra): siRNA against C1ra mRNA, sense SEQ ID NO: 8, antisense SEQ ID NO: 9 (sense GAUGUCUUUUCUCAAAAUATT; antisense UAUUUUGAGAAAAGACAUCAT; chemistry not given here)” here?
A: 6.3%

Q: What about the residual protease gene-expression ([1]; 150 pmol siRNA) of the same substance?
A: 6.7%

Q: What about the mRNA reduction ([1]; two siRNA concentrations) of the same substance?
A: 93.7% and 93.3%

Q: For “C1s (Gm5077): siRNA against Gm5077 (C1s) mRNA, sense SEQ ID NO: 10, antisense SEQ ID NO: 11 (sense CGCUGAACGUGUGAUUAUUTT; antisense AAUAAUCACACGUUCAGCGGT; chemistry not given here)”, which residual protease gene-expression ([2]; 100 pmol siRNA) is on record?
A: 11.9%

Q: What about the residual protease gene-expression ([2]; 125 pmol siRNA) of the same substance?
A: 14.4%

Q: And the mRNA reduction ([2]; two siRNA concentrations, listed as Cis (Gm5077))?
A: 88.1% and 85.6%

Q: For “MT-SP1: siRNA against matriptase mRNA, sense SEQ ID NO: 6, antisense SEQ ID NO: 7 (sense GCAAGAUCACUGUUCGCUUTT; antisense AAGCGAACAGUGAUCUUGCTG; chemistry not given here)”, which residual protease gene-expression ([3]; 125 pmol siRNA) is on record?
A: 18.6%

Q: And the residual protease gene-expression ([3]; 150 pmol siRNA)?
A: 18.2%

Q: What about the “MT-SP1 suppressed in comparison to the negative control” value ([3]; two set-ups (125 and 150 pmol siRNA)) of the same substance?
A: 81.4% and 81.8%

Q: Which residual protease gene-expression ([4]; 125 pmol siRNA) does the source give for “Plat: siRNA against Plat mRNA, sense SEQ ID NO: 12, antisense SEQ ID NO: 13 (sense GAAACAAGAUGAAGACAGATT; antisense UCUGUCUUCAUCUUGUUUCCC; chemistry not given here)” here?
A: 8.3%

Q: And the residual protease gene-expression ([4]; 150 pmol siRNA)?
A: 5.1%

Q: And the mRNA reduction ([4]; two siRNA concentrations)?
A: 91.7% and 94.9%

Q: What does the source list for “Prss35: siRNA against Prss35 mRNA, sense SEQ ID NO: 14, antisense SEQ ID NO: 15 (sense GGCCUUAGACUACGACUAUTT; antisense AUAGUCGUAGUCUAAGGCCGG; chemistry not given here)”?
A: residual protease gene-expression ([5]; 100 pmol siRNA): 18.4%; residual protease gene-expression ([5]; 125 pmol siRNA): 14.8%; mRNA reduction ([5]; two siRNA concentrations): 81.6% and 85.2%

Q: With eglin c as the substance, how does the Ki [6] read?
A: 18 nM

Source: patent US11512335B2, “Vertebrate cells and methods for recombinantly expressing a polypeptide of interest” (Novartis AG, priority 2014, dated 2022)
